# Reference: patent US12491186B2, “EGFR inhibitors for treating keratodermas” (INSERM (Institut National de la Santé et de la Recherche …, priority 2018, dated 2025)
# Like-named read-outs stand apart in the source and are kept apart here.
# Tested on: OS patients
smiles,measurement,setting,value
C#Cc1cccc(Nc2ncnc3cc(OCCOC)c(OCCOC)cc23)c1.Cl [Erlotinib],overall clinical outcome,3 OS patients,dramatic improvement
same,pain outcome after three months,"OS patients on Erlotinib, after three months",total disappearance and spontaneous pain drug removal
same,only persistent side effect,"human, in vivo",moderate acne reaction
same,side effect leading to dose reduction,"human, in vivo",abdominal pain and nausea
same,keratoderma regression completed at day,"patient 2 (mild PPK), Erlotinib 50 mg",30 days
same,reduction of pain,"patient 3, Erlotinib started at 50 mg",later
same,reduction of pain,"patients 1 and 2, Erlotinib started at 100 mg (patient 2 reduced to 50 mg)",rapid reduction of pain was observed within days
same,keratoderma regression completed at day,patients 1 and 3 (severe PPK),90 days
